Measured values as given in patent US20080131920A1, “Ion flux in biological processes, and methods related thereto” (priority 2005, published 2008).
“And” between values parts separate entries of the source, which are not always exact repeats. Equal entries are not always repeated.

Columns and labels:
Xenopus embryos = type: in vivo; conditions: treated from fertilization to stage 7; organs scored at stage 45
primitive streak cells = experiment: Cellular pH imaging of early chick blastoderm with SNARF-1-AM; type: in vivo
H3P-positive cells = experiment: H3P-positive proliferating cell quantification in amputated larvae; type: in vivo, Xenopus laevis; conditions: for Average count of H3P-positive cells / Individual counts of H3P-positive cells: medial (flank) region
Source text: To gain insight into the cellular mechanisms by which the V-ATPase participates in regeneration, we characterized the pattern of proliferating cells during regeneration, using an antibody to the phosphorylated Histone 3B—a standard marker of cells in the G2/M transition of the cell cycle, useful for identifying mitotic cells in regenerating systems including Xenopus (Saka and Smith, 2001, Dev Biol 229: 307-18; Sanchez Alvarado, 2003, Current Opinion in Genetics & Development 13: 438-444). At 24 hpa, this subset of proliferating cells is homogenously distributed throughout the growing tail (FIG. 14A). […]. […].
H3P staining marks cells in the G2/M transition of the cell cycle, and is commonly used for identifying mitotic cells in regenerating systems including Xenopus (Saka and Smith, 2001, Dev Biol 229: 307-18; Sanchez Alvarado, 2003, Current Opinion in Genetics & Development 13: 438-444). Fixed specimens at the stages indicated were processed for H3P staining as above using an alkaline-phosphatase secondary. Bleaching of the natural pigments in samples allowed easy counting of H3P-positive cells. The close-up panel to the left illustrates the distinction between purple alkaline-phosphatase signal (H3P-positive nuclei) and brown melanocytes. […] Between 4 and 6 samples were counted for each stage and each condition. Similar numbers were obtained in immunohistochemistry performed on sections as in wholemounts and in fluorescent detection (i.e., reagent penetration and chromogenic staining are not confounding factors in H3P-positive cell detection). […]

## C/C=C/[C@H]1O[C@@](O)([C@@H](C)[C@H](O)[C@H](C)[C@H]2OC(=O)/C(OC)=C/C(C)=C/[C@@H](C)[C@@H](O)[C@@H](CC)[C@@H](O)[C@H](C)C/C(C)=C/C=C/[C@@H]2OC)C[C@@H](O)[C@@H]1C [concanamycin]
Xenopus embryos
  heterotaxia, % of the embryos: 35%
Primitive streak cells
  pH of cells in the primitive streak: lowered the pH
H3P-positive cells; 24 hpa
  Average count of H3P-positive cells: 51
  Individual counts of H3P-positive cells: 79 and 26 and 45 and 53
H3P-positive cells; 48 hpa
  Average count of H3P-positive cells: 49
  Individual counts of H3P-positive cells: 39 and 58 and 51 and 46
H3P-positive cells; by 24 hpa, general (flank)
  reduction in the number of proliferating cells: 3 fold
H3P-positive cells; in vivo
  change in number of proliferating cells in the mid-flank between 24 and 48 hpa: does not change significantly
